In US20250325689A1, “ANTIBODY-MULTIDRUG CONJUGATE” (UBE CORPORATION, priority 2022, published 2025):
Starred links: 1 amine or outer side, 2 acyl side, 3 side chain; linkers in the order of their positions; H or OH if unused. Non-standard residues stand in square brackets, D forms with d. Residues, ends and D or L forms follow the SMILES beside them. *: point of attachment. Dolaproine = CO[C@@H]([C@@H]1CCCN1)[C@@H](C)C(=O)O; X2 = C[C@@H](N[*:1])[C@@H](OC(=O)[*:2])c1ccccc1; Dil = CC[C@H](C)[C@H](NC)[C@@H](CC(=O)O)OC; X4 = OCC1OC(n2cc(CN*)nn2)C(O)C(O)C1O; NMeV = CN[C@H](C(=O)O)C(C)C

Molecular target: T1, porcine tubulin (Sus scrofa, UniProt P02550+P02554)
T1 construct: purchased Cytoskeleton, Inc. BKO11P
Assay: Tubulin polymerization inhibition test
Format: biochemical
Details: 37° C., fluorescence measured for 60 minutes
Experimental: For measuring the tubulin polymerization inhibitory action, Tubulin Polymerization Assay Kit (manufactured by Cytoskeleton, Inc., BKO11P) was used. A PIPES buffer containing porcine tubulin, GTP, MgCl2, EGTA, Glycerol, and a fluorescent reporter was prepared under ice-cooling as a reaction solution. The reaction solution was ice-cooled until it was used. A test compound solution was prepared by an aqueous solution containing 1.5% DMSO, and added to a 96 well plate (manufactured by Corning Inc., 3686) at 5 μL/well. The reaction solution was added thereto at 50 μL/well, the plate was placed in a microplate reader (FlexStation 3, manufactured by Molecular Device, LLC) in which the internal temperature was set to 37° C. in advance, and the fluorescence intensity measurement (excitation wavelength: 360 nm, detection wavelength: 420 nm) of each well was started. The fluorescence intensity was measured once every minute, and the measurement was continued for 60 minutes.
The tubulin polymerization inhibition rate (%) was calculated by the following equation. […]

T1 sequence (P02550 whole entry): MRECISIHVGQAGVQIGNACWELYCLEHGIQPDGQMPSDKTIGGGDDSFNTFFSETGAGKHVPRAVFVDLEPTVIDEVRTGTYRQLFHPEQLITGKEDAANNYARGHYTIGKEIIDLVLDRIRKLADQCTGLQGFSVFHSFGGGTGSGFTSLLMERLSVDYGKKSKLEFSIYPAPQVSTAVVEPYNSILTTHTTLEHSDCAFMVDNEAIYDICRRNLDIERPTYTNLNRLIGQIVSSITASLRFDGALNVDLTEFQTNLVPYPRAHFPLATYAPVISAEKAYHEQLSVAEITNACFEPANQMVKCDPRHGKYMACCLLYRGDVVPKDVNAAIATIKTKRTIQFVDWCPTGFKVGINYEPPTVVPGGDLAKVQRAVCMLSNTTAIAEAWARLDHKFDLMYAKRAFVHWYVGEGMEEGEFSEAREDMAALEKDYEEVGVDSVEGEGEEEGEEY
T1 sequence (P02554 whole entry): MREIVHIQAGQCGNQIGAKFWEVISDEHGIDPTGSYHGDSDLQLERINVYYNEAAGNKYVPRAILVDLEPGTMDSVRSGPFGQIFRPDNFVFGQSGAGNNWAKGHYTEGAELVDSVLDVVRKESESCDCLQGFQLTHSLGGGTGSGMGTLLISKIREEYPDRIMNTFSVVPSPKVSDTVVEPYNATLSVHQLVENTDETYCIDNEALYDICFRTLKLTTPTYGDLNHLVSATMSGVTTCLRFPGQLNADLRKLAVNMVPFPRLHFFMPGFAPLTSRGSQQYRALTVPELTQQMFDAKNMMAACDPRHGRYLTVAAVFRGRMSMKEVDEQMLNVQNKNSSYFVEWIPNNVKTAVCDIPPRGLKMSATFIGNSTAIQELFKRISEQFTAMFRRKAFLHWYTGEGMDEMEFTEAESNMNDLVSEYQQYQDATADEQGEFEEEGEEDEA

CC[C@H](C)[C@@H]([C@@H](CC(=O)N1CCC[C@H]1[C@H](OC)[C@@H](C)C(=O)N[C@H](C)[C@@H](OC(=O)NCc1cn(C2OC(CO)C(O)C(O)C2O)nn1)c1ccccc1)OC)N(C)C(=O)[C@@H](NC(=O)[C@@H](NC)C(C)C)C(C)C (stereo partly shown) [Example U-018] (H-[NMeV]V[Dil][Dolaproine][X2]-X4)
IC50: ≤ 3 µM
